Test [1] deals with T1, Muscarinic acetylcholine receptor M1 (Homo sapiens, UniProt P11229).
T1 sequence (P11229 whole entry): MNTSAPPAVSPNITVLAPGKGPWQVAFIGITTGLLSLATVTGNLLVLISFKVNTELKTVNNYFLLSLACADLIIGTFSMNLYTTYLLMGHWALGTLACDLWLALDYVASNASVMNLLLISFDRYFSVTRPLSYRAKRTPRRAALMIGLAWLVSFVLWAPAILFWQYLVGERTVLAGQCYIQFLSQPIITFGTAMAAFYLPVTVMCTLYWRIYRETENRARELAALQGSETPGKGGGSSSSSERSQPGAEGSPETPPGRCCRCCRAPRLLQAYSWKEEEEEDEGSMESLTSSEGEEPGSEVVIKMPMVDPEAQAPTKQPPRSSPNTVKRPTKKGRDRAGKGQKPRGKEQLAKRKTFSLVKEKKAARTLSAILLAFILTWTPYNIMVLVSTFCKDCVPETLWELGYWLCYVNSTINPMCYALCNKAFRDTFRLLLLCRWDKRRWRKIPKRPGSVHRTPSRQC
Put plainly: Binding affinity against M1 receptor expressed in CHO-K1 cells transfected with human muscarinic receptor sequence using radioligand [3H]quinuclidinyl benzilate ([3H]QNB). It counts as cell-based.

Test [2] deals with T2, Muscarinic acetylcholine receptor M2 (Rattus norvegicus, UniProt P10980).
T2 sequence (P10980 whole entry): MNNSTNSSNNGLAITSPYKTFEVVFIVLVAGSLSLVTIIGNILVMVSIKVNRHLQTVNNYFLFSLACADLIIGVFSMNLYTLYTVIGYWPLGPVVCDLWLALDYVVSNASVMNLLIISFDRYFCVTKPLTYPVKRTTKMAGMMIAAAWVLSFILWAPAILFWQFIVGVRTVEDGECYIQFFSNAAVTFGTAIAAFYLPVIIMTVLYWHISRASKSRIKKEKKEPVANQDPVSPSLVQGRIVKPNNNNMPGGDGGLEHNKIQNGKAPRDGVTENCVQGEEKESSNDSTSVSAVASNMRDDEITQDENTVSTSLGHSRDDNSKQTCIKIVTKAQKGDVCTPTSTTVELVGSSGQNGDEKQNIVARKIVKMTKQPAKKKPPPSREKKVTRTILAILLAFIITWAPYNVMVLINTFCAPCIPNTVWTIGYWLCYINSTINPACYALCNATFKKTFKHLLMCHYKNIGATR
The experiment in a line: Binding affinity against M2 receptor in rat brainstem cells using radioligand [3H]quinuclidinyl benzilate ([3H]QNB). It counts as cell-based, Brain.

The target in test [3] is Muscarinic acetylcholine receptors; M1 & M2 (Homo sapiens) (UniProt P11229+P08172). The experiment in a line: Ratio of binding affinities towards M2 receptor to M1 receptor. It counts as protein assay.

As usually defined, the Kd is the concentration at which binding is half-saturated. With `C[C@@H]1OC(=O)[C@H]2C[C@H]3CCCC[C@@H]3[C@@H](/C=C/[C@H]3CCC[C@H](C)N3C)[C@@H]12` [HIMBACINE], the figures for the equilibrium dissociation constant (Kd) in test [1] and in test [2] were 148 nM and 10 nM, respectively. Further, in test [3], the Selectivity is 14.8.
Regarding `C[C@@H]1O[C@H](O)[C@H]2C[C@H]3CCCC[C@@H]3[C@@H](/C=C/[C@H]3CCC[C@H](C)N3C)[C@H]21`, the equilibrium dissociation constant (Kd) in test [1] came to 423 nM; in test [2] it was 96 nM. The Selectivity in test [3] was 4.4.
Turning to `C[C@H](O)[C@H]1[C@@H](CO)C[C@H]2CCCC[C@@H]2[C@H]1/C=C/[C@H]1CCC[C@H](C)N1C`, the results for the Kd in test [1] and in test [2] were 494 nM and 293 nM, respectively. Moreover, in test [3], the Selectivity worked out at 1.7.
Consider `C[C@@H]1OC[C@H]2C[C@H]3CCCC[C@@H]3[C@@H](/C=C/[C@H]3CCC[C@H](C)N3C)[C@H]21`, for which the Kd in test [1] worked out at 167 nM; in test [2] it was 353 nM. The Selectivity in test [3] was found to be 0.5.
Take `C[C@@H]1O[C@H](OC(=O)C(C)(C)C)[C@H]2C[C@H]3CCCC[C@@H]3[C@@H](/C=C/[C@H]3CCC[C@H](C)N3C)[C@H]21`: the Kd in test [1] was determined as 2520 nM; in test [2], 464 nM. The Selectivity in test [3] worked out at 5.4.
As to `CC(=O)OC[C@H]1C[C@H]2CCCC[C@@H]2[C@@H](/C=C/[C@H]2CCC[C@H](C)N2C)[C@H]1[C@H](C)OC(C)=O`, the Kd is 605 nM in test [1] and 249 nM in test [2]. Also, in test [3], the Selectivity stood at 2.4.
For `CC(=O)O[C@H]1O[C@@H](C)[C@@H]2[C@H](/C=C/[C@H]3CCC[C@H](C)N3C)[C@H]3CCCC[C@@H]3C[C@H]12`, the Kd in test [1] worked out at 866 nM; in test [2] it was 89 nM. Besides, in test [3], the Selectivity came to 9.7.
